This is an account of results in article PMC5916221, “High-throughput identification of G protein-coupled receptor modulators through affinity mass spectrometry screening” (Chemical Science, 2018).

In assay [1] the target is T1, glucagon-like peptide-1 receptor (GLP-1R) (Homo sapiens, UniProt P43220, DEL258-263).
T1 construct: gene GLP1R; TMD residues 128–431 with intracellular loop 2 (258–263) replaced by rubredoxin, N-terminal BRIL
T1 sequence (P43220 128-257): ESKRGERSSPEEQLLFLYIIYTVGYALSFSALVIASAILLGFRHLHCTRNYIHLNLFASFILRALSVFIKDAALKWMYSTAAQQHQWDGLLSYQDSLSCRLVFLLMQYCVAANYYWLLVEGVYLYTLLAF
T1 sequence (P43220 264-431): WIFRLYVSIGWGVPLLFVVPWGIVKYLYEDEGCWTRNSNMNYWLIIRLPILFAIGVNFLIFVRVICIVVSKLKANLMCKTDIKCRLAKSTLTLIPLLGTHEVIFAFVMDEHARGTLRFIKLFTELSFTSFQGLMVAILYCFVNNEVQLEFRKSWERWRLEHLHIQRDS
Briefly: affinity MS on receptor-expressing membranes, binding index vs rhodopsin control.

For a further assay, the target named is T2, 5-HT2CR (Homo sapiens, UniProt P28335).
T2 construct: gene HTR2C
T2 sequence (P28335 1-458): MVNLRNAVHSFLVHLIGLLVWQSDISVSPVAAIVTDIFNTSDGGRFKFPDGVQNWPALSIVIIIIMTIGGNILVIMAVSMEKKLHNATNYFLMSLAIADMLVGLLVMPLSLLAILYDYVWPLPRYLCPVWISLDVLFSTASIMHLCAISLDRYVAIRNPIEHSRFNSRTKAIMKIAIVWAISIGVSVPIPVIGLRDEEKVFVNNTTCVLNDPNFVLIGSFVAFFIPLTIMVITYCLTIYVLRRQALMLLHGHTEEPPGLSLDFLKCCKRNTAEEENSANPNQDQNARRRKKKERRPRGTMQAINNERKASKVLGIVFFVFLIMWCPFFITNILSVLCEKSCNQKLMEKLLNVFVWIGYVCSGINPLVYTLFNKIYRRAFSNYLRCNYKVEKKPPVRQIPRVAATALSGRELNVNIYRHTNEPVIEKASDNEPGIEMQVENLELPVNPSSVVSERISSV
The assay is described as follows: biochemical. Further details: CPM fluorescent dye thermal shift assay on purified receptor, Tm shift versus apo receptor. Particulars: single replicate of two; for ΔTm (°C): 100 µM, binder. How it is done: The thermal shift assay using a CPM fluorescent dye (Sigma) was performed as described in the literature.[27] […] The protein sample was heated step-wise on a Rotor-Gene Thermo-optical Analyzer (QIAGEN Gmbh) from 25 °C to 95 °C. Upon temperature rise, the proteins unfolded and cysteine residues were exposed to form adducts with CPM, which were detected by fluorescence at 387/463 nm using an EnVision multilabel plate reader (PerkinElmer). From the normalized thermal stability curve, melting temperatures (Tm) were obtained by fitting the curve with a Boltzmann sigmoidal function using GraphPad Prism. Comparison of Tm for the apo receptor and receptor incubated with a compound gave rise to Tm shift (ΔTm) for the compound. Using stringent data processing criteria for compound annotation and hit selection (see ESI ^†), we identified a total of 23 initial hits from screening the 9 cocktails (Fig. 2, full data set in Table S1 ^†). Twelve were well characterized antagonists for 5-HT2CR or a closely-related subfamily member 5-HT2AR with a mean BI of 2.16 to 9.71 (full data set in Table S2 ^†). […] While their IC50 or Ki values from the ChEMBL database were all above 10 nM, 85% had IC50 or Ki > 100 nM towards 5-HT2CR. Therefore, the stringent BI cut-off defined for hit selection ensured identification of highest affinity ligands with a minimal false-positive rate. To verify the 11 initial hits with no documented binding to the 5-HT2 receptor family, a simple mixture was created by pooling and incubating them with the receptor-expressing membranes. Four hits were verified in this secondary affinity MS assay (Fig. 3a). Those that were invalidated could have resulted from compound misidentification or altered binding properties in the original complex mixtures. […] The radioligand competition assay verified potent antagonist binding of 3943 to all three 5-HT2 receptor subtypes in the nanomolar range, with stronger affinity to 5-HT2A/2BR than 5-HT2CR (Fig. 3c, S3b ^†). It was not surprising to identify a new antagonist against three 5-HT2 receptor subfamily members using our approach because of the high sequence homology and very similar ligand binding pockets among them.

Several values for one entry are separate records, joined by “and”; a condition that tells them apart may be missing. Equal entries are not always repeated.

Regarding `CC1(C)CC([C@@H](Nc2ccc(-n3cnc(C(F)(F)F)c3)nc2)c2ccc(C(=O)NCCC(=O)O)cc2)C1` [PF06372222], in assay [1], the “affinity MS on receptor-expressing membranes, binding index vs rhodopsin control” value was 16.66 binding index (ratio).
On to `C1=Cc2ccccc2C(=C2CCN(CCCCc3nn[nH]n3)CC2)c2ccccc21` [compound 3943, AT-56], for which, on 5-HT2CR, the ΔTm at 100 µM stood at 6.2 °C and the “ΔTm (°C)” value was determined as 6.9 °C.
For `C[C@@H]1CN(c2c(F)c(F)c3c(=O)c(C(=O)O)cn(C4CC4)c3c2F)C[C@H](C)N1` [compound 1382, Orbifloxacin], on 5-HT2CR, the ΔTm at 100 µM came to 2 °C.
On to `O=C(NC1CCNCC1)c1n[nH]cc1NC(=O)c1c(Cl)cccc1Cl` [compound 3931, AT 7519], for which the “ΔTm (°C)” value on 5-HT2CR was -3.0 °C and -0.2 °C.
`CC(C)c1nc(CN(C)C(=O)N[C@H](C(=O)N[C@@H](Cc2ccccc2)C[C@H](O)[C@H](Cc2ccccc2)NC(=O)OCc2cncs2)C(C)C)cs1` [compound 462, Ritonavir]: at 5-HT2CR, the ΔTm at 100 µM was determined as 0.2 °C.
As to `CS(=O)(=O)c1cccc(NC(=O)N(Cc2ccc(C(=O)Nc3nnn[nH]3)cc2)c2ccc(C3CCCCC3)cc2)c1` [NNC0640], the “affinity MS on receptor-expressing membranes, binding index vs rhodopsin control” value in assay [1] is reported as 3.31 binding index (ratio).

By ΔTm is commonly meant the change in melting temperature against a reference sample.
